Legend:
[1] = target: T1, hMR (Homo sapiens, UniProt P08235); assay: APRn selectivity: transactivation in HEK293T cells transiently expressing hMR; type: cell-based; settings: mean±SEM; for MR Antagonist efficacy (%): aldosterone 10^−9 M
T1 construct: expressed in transfected cells; host or cells: HEK 293T
T1 sequence (P08235 1-984): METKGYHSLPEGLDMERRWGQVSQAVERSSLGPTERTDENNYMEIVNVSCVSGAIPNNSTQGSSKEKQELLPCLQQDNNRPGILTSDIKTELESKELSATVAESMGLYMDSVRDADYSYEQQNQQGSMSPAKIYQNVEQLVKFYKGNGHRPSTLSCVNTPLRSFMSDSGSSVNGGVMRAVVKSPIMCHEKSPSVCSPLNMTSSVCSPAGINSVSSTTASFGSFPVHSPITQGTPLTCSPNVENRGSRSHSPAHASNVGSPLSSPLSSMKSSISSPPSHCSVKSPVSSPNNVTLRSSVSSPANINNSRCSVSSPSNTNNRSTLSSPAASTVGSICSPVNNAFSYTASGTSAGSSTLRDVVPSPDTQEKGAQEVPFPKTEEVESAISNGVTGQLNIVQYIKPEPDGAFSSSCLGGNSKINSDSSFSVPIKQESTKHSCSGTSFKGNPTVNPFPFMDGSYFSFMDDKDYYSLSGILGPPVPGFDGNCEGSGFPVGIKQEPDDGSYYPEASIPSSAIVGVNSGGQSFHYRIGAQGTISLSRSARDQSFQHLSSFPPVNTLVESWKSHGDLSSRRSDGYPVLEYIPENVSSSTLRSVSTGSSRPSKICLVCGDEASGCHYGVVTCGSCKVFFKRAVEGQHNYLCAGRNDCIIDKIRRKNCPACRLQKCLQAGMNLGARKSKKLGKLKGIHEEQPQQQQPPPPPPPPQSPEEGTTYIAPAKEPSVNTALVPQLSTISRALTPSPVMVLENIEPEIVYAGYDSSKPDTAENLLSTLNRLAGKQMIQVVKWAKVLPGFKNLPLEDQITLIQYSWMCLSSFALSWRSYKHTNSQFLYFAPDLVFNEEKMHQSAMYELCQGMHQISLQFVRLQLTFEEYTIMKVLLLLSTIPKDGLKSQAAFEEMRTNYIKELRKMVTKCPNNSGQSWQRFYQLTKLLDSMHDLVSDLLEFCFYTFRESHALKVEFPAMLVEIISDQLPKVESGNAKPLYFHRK
Experimental: (§1) Measurement of the APRn Selectivity in HEK 293T.
(§2) The HEK-293T cells were cultured and transfected according to the method described above for the PR transactivation assays. The expression vectors pcDNA-hAR, kindly provided by G. A. Coetzee, pchGR (Hellal-Levy, C et al. FEBS Lett 1999, 464, 9), and pchMR (Fagart, J. et al. EMBO J. 1998, 17, 3317) were used for studying the ability of APRn to activate or inactivate the AR, GR and MR, respectively. For each transfection assays, 2 μg of the expression vector was used together with 7 μg of the GRE2-Luc reporter vector. Dihydrotestosterone (DHT), dexamethasone (Dex) and Aldosterone (Aldo) were selected as AR, GR and MR ligands, respectively. They were used at the concentration of 10^−9 M. The APRn agonist and antagonist efficacy for AR, GR and MR were measured as described above for PR. The results are the mean±SEM of three independent experiments.
(§3) Transfection assays were performed in HEK 293T cells by using expression vectors for the hAR, hGR and hMR and the GRE2-Luc reporter used for the PR transactivation assays.

[2] = target: T2, hAR (Homo sapiens, UniProt P10275); assay: APRn selectivity: transactivation in HEK293T cells transiently expressing hAR; type: cell-based; settings: for agonist efficacy towards hAR (in words): HEK293T, FIG. 11; for selectivity for hPR vs hAR, hGR and hMR (in words): conclusion from hAR, hGR and hMR transactivation assays
T2 construct: expressed in transfected cells; host or cells: HEK 293T
T2 sequence (P10275 1-920): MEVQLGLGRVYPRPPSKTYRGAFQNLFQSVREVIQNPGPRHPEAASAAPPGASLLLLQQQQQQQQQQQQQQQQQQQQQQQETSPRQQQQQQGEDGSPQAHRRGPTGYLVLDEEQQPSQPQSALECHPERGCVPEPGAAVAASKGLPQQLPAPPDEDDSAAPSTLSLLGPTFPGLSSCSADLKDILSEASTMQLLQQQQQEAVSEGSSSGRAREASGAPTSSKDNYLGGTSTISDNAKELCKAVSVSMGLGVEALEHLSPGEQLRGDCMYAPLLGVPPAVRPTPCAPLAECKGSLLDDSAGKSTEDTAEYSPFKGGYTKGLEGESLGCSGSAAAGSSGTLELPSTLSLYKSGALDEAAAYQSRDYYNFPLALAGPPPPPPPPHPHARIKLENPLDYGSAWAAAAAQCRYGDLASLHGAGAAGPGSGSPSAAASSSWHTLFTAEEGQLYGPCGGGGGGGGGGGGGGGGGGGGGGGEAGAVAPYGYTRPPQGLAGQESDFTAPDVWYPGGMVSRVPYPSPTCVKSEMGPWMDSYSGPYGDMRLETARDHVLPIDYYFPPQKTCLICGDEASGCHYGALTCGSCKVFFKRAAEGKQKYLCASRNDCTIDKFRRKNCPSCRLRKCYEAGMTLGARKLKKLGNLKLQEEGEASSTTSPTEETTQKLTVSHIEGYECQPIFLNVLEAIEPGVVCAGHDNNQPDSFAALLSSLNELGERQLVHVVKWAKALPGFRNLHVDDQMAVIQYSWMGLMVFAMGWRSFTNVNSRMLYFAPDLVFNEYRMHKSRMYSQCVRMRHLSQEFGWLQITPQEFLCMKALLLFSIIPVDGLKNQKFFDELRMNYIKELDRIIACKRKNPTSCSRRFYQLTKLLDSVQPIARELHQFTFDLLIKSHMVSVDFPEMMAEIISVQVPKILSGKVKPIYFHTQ
Experimental: as §1, §2, §3

Row | Structure (SMILES) | MR Antagonist efficacy (%) [1] | MR Agonist efficacy (%) [1] | agonist efficacy towards hAR (in words) [2] | selectivity for hPR vs hAR, hGR and hMR (in words) [2]
1 | C[C@@H]1CCC2C3CC=C4C[C@@H](F)CC[C@]4(C)C3CC[C@]2(C)[C@H]1F (stereo partly drawn) [APR-19, 3β,17α-Difluoro-17α-methyl-D-Homo-pregn-5-ene] | −1.0 ± 3.5% | 0.57 ± 0.07% |  | 
2 | C[C@]12CCC3C(CC=C4C[C@@H](F)CC[C@@H]43)C1CCC2=O (stereo partly drawn) [APR-47, 3β-Fluoro-19-nor-androst-5-en-17-one] | 2.2 ± 2.1% | 0.50 ± 0.14% | low agonist efficacy | selective hPR antagonists
3 | CC#C[C@]1(O)CCC2C3CC[C@H]4CCCC[C@@H]4C3CC[C@@]21C (stereo partly drawn) [APR-54, 17α-(1-Propynyl)-19-nor-5-androstan-17β-ol] | 3.4 ± 6.2% | 0.53 ± 0.11% |  | 
4 | CC(=O)[C@H]1CC[C@H]2[C@@H]3CC=C4C[C@@H](F)CC[C@]4(C)[C@H]3CC[C@]12C [APR-16, 3β-Fluoropregn-5-en-20-one] | −2.7 ± 3.3% | 0.53 ± 0.05% | low agonist efficacy | selective hPR antagonists
5 | CC#C[C@]1(O)CCC2C3CC[C@H]4CCCC[C@]4(C)C3CC[C@@]21C (stereo partly drawn) [APR-42, 17α-(1-Propynyl)-5α-androstan-17β-ol] | 0.4 ± 2.6% | 0.57 ± 0.05% | low agonist efficacy | selective hPR antagonists

Source: US20130203718A1 (priority 2010, published 2013)
